From patent US20240368173A1, “TRICYCLIC GPR65 MODULATORS” (PATHIOS THERAPEUTICS LIMITED, priority 2021, published 2024)

The molecules below were run against human recombinant GPR65 (Homo sapiens, UniProt Q8IYL9) (assay: Human GPR65 cAMP HTRF antagonist assay). Details: not given.
Type: cell-based
How it was run: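 Antagonism measured as suppression of the cAMP rise when pH is dropped to 7.2 (control wells pH 7.9) in 1321N1 cells stably carrying human GPR65. Cells in KRH with 1 mM IBMX and 200 μM EDTA saw compound 30 min, then acid stimulation 30 min; HTRF cAMP detection, normalised, 4-parameter logistic IC50.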

human recombinant GPR65, sequence (Q8IYL9 whole entry): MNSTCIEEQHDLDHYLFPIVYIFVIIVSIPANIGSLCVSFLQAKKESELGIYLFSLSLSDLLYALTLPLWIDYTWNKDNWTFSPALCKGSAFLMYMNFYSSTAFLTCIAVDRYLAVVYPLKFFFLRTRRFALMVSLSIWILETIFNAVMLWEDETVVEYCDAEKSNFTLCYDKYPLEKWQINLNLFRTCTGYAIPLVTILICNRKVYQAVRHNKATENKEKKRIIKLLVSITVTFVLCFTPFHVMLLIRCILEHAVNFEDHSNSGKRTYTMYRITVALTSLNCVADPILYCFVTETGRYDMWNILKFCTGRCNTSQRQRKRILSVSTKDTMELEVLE

SMILES | IC50 [nM]
O=C(Nc1cc(Cl)c(-c2cnc3nsnc3c2)cc1F)N1[C@H]2CC[C@@H]1c1n[nH]c(=O)cc1C2 [Compound 277, (6S,9R)-N-(4-([1,2,5]Thiadiazolo[3,4-b]pyridin-6-yl)-5-chloro-2-fluorophenyl)-3-oxo-3,5,6,7,8,9-hexahydro-2H-6,9-epiminocyclohepta[c]pyridazine-10-carboxamide] | < 500
COCc1ccc(-c2cc(F)c(NC(=O)N3[C@H]4CC[C@@H]3c3n[nH]c(=O)cc3C4)cc2Cl)cn1 [Compound 278, (6S,9R)-N-(5-Chloro-2-fluoro-4-(6-(methoxymethyl)pyridin-3-yl)phenyl)-3-oxo-3,5,6,7,8,9-hexahydro-2H-6,9-epiminocyclohepta[c]pyridazine-10-carboxamide] | < 500
O=C(Nc1cc(Cl)c(-c2cnc(F)c(F)c2)cc1F)N1[C@H]2CC[C@@H]1c1n[nH]c(=O)cc1C2 [Compound 279, (6S,9R)-N-(5-Chloro-4-(5,6-difluoropyridin-3-yl)-2-fluorophenyl)-3-oxo-3,5,6,7,8,9-hexahydro-2H-6,9-epiminocyclohepta[c]pyridazine-10-carboxamide] | < 500
COc1ncc(-c2cc(F)c(NC(=O)N3[C@H]4CC[C@@H]3c3n[nH]c(=O)cc3C4)cc2Cl)cn1 [Compound 281, (6S,9R)-N-(5-Chloro-2-fluoro-4-(2-methoxypyrimidin-5-yl)phenyl)-3-oxo-3,5,6,7,8,9-hexahydro-2H-6,9-epiminocyclohepta[c]pyridazine-10-carboxamide] | < 500
Cn1ccc2c(-c3cc(F)c(NC(=O)N4[C@H]5CC[C@@H]4c4n[nH]c(=O)cc4C5)cc3Cl)ccnc21 [Compound 282, (6S,9R)-N-(5-Chloro-2-fluoro-4-(1-methyl-1H-pyrrolo[2,3-b]pyridin-4-yl)phenyl)-3-oxo-3,5,6,7,8,9-hexahydro-2H-6,9-epiminocyclohepta[c]pyridazine-10-carboxamide] | < 500
O=C(Nc1nnc(C2CCCCC2)s1)N1[C@H]2CC[C@@H]1c1ccnc(F)c1C2 [Compound 285, (5R,8S)—N-(5-cyclohexyl-1,3,4-thiadiazol-2-yl)-1-fluoro-6,7,8,9-tetrahydro-5H-5,8-epiminocyclohepta[c]pyridine-10-carboxamide] | < 500
O=C(Nc1cc(F)c(-c2ccc(C(F)(F)F)nc2)cc1F)N1[C@H]2CC[C@@H]1c1n[nH]c(=O)cc1C2 [Compound 286, (6S,9R)-N-(2,5-Difluoro-4-(6-(trifluoromethyl)pyridin-3-yl)phenyl)-3-oxo-3,5,6,7,8,9-hexahydro-2H-6,9-epiminocyclohepta[c]pyridazine-10-carboxamide] | < 500
O=C(Nc1cc(Cl)c(-c2ccc(OCCF)nc2)cc1F)N1[C@H]2CC[C@@H]1c1n[nH]c(=O)cc1C2 [Compound 291, (6S,9R)-N-(5-Chloro-2-fluoro-4-(6-(2-fluoroethoxy)pyridin-3-yl)phenyl)-3-oxo-3,5,6,7,8,9-hexahydro-2H-6,9-epiminocyclohepta[c]pyridazine-10-carboxamide] | < 500
O=C(Nc1cc(Cl)c(-c2ccc(OC3CC(F)(F)C3)nc2)cc1F)N1[C@H]2CC[C@@H]1c1n[nH]c(=O)cc1C2 [Compound 292, (6S,9R)-N-(5-Chloro-4-(6-(3,3-difluorocyclobutoxy)pyridin-3-yl)-2-fluorophenyl)-3-oxo-3,5,6,7,8,9-hexahydro-2H-6,9-epiminocyclohepta[c]pyridazine-10-carboxamide] | < 500
O=C(Nc1cc(Cl)c(COc2ccc(F)nc2)cc1F)N1[C@H]2CC[C@@H]1c1n[nH]c(=O)cc1C2 [Compound 293, (6S,9R)-N-(5-Chloro-2-fluoro-4-(((6-fluoropyridin-3-yl)oxy)methyl)phenyl)-3-oxo-3,5,6,7,8,9-hexahydro-2H-6,9-epiminocyclohepta[c]pyridazine-10-carboxamide] | < 500
O=C(Nc1cc(Cl)c(Oc2ccc3nonc3c2)cc1F)N1[C@H]2CC[C@@H]1c1n[nH]c(=O)cc1C2 [Compound 294, (6S,9R)-N-(4-(Benzo[c][1,2,5]oxadiazol-5-yloxy)-5-chloro-2-fluorophenyl)-3-oxo-3,5,6,7,8,9-hexahydro-2H-6,9-epiminocyclohepta[c]pyridazine-10-carboxamide] | < 500
O=C(Nc1cc(Cl)c(C(F)(F)F)cc1F)N1[C@@H]2CC[C@H]1c1ccnc(F)c1[C@H]2F [Compound 295, (5S,8R,9R)-N-(5-Chloro-2-fluoro-4-(trifluoromethyl)phenyl)-1,9-difluoro-6,7,8,9-tetrahydro-5H-5,8-epiminocyclohepta[c]pyridine-10-carboxamide] | < 500
O=C(Nc1cc(Cl)c(C(F)(F)F)cc1F)N1[C@@H]2CC[C@H]1[C@@H](F)c1c2ccnc1F [Compound 296, (5R,8S,9S)-N-(5-Chloro-2-fluoro-4-(trifluoromethyl)phenyl)-1,9-difluoro-6,7,8,9-tetrahydro-5H-5,8-epiminocyclohepta[c]pyridine-10-carboxamide] | < 500
COc1cnccc1-c1cc(F)c(NC(=O)N2[C@H]3CC[C@@H]2c2ccnc(F)c2C3)cc1Cl [Compound 297, (5R,8S)-N-(5-Chloro-2-fluoro-4-(3-methoxypyridin-4-yl)phenyl)-1-fluoro-6,7,8,9-tetrahydro-5H-5,8-epiminocyclohepta[c]pyridine-10-carboxamide] | < 500
COc1cnccc1-c1cc(F)c(NC(=O)N2[C@H]3CC[C@@H]2c2c[nH]c(=O)cc2C3)cc1Cl [Compound 298, (6S,9R)-N-(5-Chloro-2-fluoro-4-(3-methoxypyridin-4-yl)phenyl)-3-oxo-3,5,6,7,8,9-hexahydro-2H-6,9-epiminocyclohepta[c]pyridine-10-carboxamide] | 500 to 5000
CN(C)CCOc1ccc(-c2cc(F)c(NC(=O)N3[C@H]4CC[C@@H]3c3ccnc(F)c3C4)cc2Cl)cn1 [Compound 301, (5R,8S)-N-(5-Chloro-4-(6-(2-(dimethylamino)ethoxy)pyridin-3-yl)-2-fluorophenyl)-1-fluoro-6,7,8,9-tetrahydro-5H-5,8-epiminocyclohepta[c]pyridine-10-carboxamide] | < 500
O=C(Nc1cc(Cl)c(COc2ccc3nonc3c2)cc1F)N1[C@H]2CC[C@@H]1c1n[nH]c(=O)cc1C2 [Compound 302, (6S,9R)-N-(4-((Benzo[c][1,2,5]oxadiazol-5-yloxy)methyl)-5-chloro-2-fluorophenyl)-3-oxo-3,5,6,7,8,9-hexahydro-2H-6,9-epiminocyclohepta[c]pyridazine-10-carboxamide] | < 500
COCCOc1ccc(-c2cc(F)c(NC(=O)N3[C@H]4CC[C@@H]3c3n[nH]c(=O)cc3C4)cc2Cl)cn1 [Compound 303, (6S,9R)-N-(5-Chloro-2-fluoro-4-(6-(2-methoxyethoxy)pyridin-3-yl)phenyl)-3-oxo-3,5,6,7,8,9-hexahydro-2H-6,9-epiminocyclohepta[c]pyridazine-10-carboxamide] | < 500
CO[C@H]1C[C@@H](Oc2ccc(-c3cc(F)c(NC(=O)N4[C@H]5CC[C@@H]4c4n[nH]c(=O)cc4C5)cc3Cl)cn2)C1 [Compound 304, (6S,9R)-N-(5-Chloro-2-fluoro-4-(6-((1s,3S)-3-methoxycyclobutoxy)pyridin-3-yl)phenyl)-3-oxo-3,5,6,7,8,9-hexahydro-2H-6,9-epiminocyclohepta[c]pyridazine-10-carboxamide] | < 500
O=C(Nc1cc(Cl)c(-c2ccc(OCC(F)F)nc2)cc1F)N1[C@H]2CC[C@@H]1c1n[nH]c(=O)cc1C2 [Compound 305, (6S,9R)-N-(5-Chloro-4-(6-(2,2-difluoroethoxy)pyridin-3-yl)-2-fluorophenyl)-3-oxo-3,5,6,7,8,9-hexahydro-2H-6,9-epiminocyclohepta[c]pyridazine-10-carboxamide] | < 500
CO[C@H]1C[C@H](Oc2ccc(-c3cc(F)c(NC(=O)N4[C@H]5CC[C@@H]4c4n[nH]c(=O)cc4C5)cc3Cl)cn2)C1 [Compound 306, (6S,9R)-N-(5-Chloro-2-fluoro-4-(6-((1r,3R)-3-methoxycyclobutoxy)pyridin-3-yl)phenyl)-3-oxo-3,5,6,7,8,9-hexahydro-2H-6,9-epiminocyclohepta[c]pyridazine-10-carboxamide] | < 500
O=C(Nc1cc(Cl)c(-c2ccc(OC(CF)CF)nc2)cc1F)N1[C@H]2CC[C@@H]1c1n[nH]c(=O)cc1C2 [Compound 307, (6S,9R)-N-(5-Chloro-4-(6-((1,3-difluoropropan-2-yl)oxy)pyridin-3-yl)-2-fluorophenyl)-3-oxo-3,5,6,7,8,9-hexahydro-2H-6,9-epiminocyclohepta[c]pyridazine-10-carboxamide] | < 500

Same assay, conditions: 1321N1-hrGPR65 cells, cAMP HTRF, assay pH 7.2; read-out: hGPR65 IC50 (Activity of selected compounds according to the invention)

SMILES | IC50 [nM]
COCc1cncc(-c2cc(F)c(NC(=O)N3[C@H]4CC[C@@H]3c3n[nH]c(=O)cc3C4)cc2Cl)c1 [Compound 280, (6S,9R)-N-(5-Chloro-2-fluoro-4-(5-(methoxymethyl)pyridin-3-yl)phenyl)-3-oxo-3,5,6,7,8,9-hexahydro-2H-6,9-] | 500 to 5000
COCCOc1cnc(F)c2c1[C@H]1CC[C@@H](C2)N1C(=O)Nc1cc(Cl)c(Cl)cc1F [Compound 283, (5R,8S)—N-(4,5-Dichloro-2-fluorophenyl)-1-fluoro-4-(2-methoxyethoxy)-6,7,8,9-tetrahydro-5H-5,8-epiminocyclohepta[c]pyridine-10-carboxamide] | 500 to 5000
COc1cnccc1-c1cc(F)c(NC(=O)N2[C@H]3CC[C@@H]2c2n[nH]c(=O)cc2C3)cc1Cl [Compound 299, (6S,9R)-N-(5-Chloro-2-fluoro-4-(3-methoxypyridin-4-yl)phenyl)-3-oxo-3,5,6,7,8,9-hexahydro-2H-6,9-epiminocyclohepta[c]pyridazine-10-carboxamide] | 500 to 5000
CNCCOc1ccc(-c2cc(F)c(NC(=O)N3[C@H]4CC[C@@H]3c3ccnc(F)c3C4)cc2Cl)cn1 [Compound 300, (5R,8S)—N-(5-Chloro-2-fluoro-4-(6-(2-(methylamino)ethoxy)pyridin-3-yl)phenyl)-1-fluoro-6,7,8,9-tetrahydro-5H-5,8-epiminocyclohepta[c]pyridine-10-carboxamide] | 500 to 5000
